Measured values published in ChEMBL document CHEMBL1201862, “PubChem BioAssay data set” (2004).
Active and inactive are the calls of the source.

Tests used:
[1] = target: T1, Tyrosine-protein phosphatase non-receptor type 7 (Homo sapiens, UniProt P35236); type: functional
T1 sequence (P35236 whole entry): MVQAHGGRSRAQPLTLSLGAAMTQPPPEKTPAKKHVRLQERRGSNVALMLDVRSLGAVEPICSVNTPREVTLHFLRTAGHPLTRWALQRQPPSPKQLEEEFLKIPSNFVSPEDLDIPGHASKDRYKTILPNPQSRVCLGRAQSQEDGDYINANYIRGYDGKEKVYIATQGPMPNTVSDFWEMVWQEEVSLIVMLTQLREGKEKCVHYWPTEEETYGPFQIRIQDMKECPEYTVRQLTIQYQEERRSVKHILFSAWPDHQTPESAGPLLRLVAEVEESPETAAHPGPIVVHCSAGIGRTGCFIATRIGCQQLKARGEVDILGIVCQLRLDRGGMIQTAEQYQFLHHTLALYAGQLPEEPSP

[2] = HEK-293T viability loss after treatment – luminescence, T-cell screen hits, cytotoxicity control for TCR NF-kB inhibitor project, dose response (AID 489026); type: functional, cell-based;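 further: cells exposed to compound about 14 hours before the viability readout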
Phospholipase A2 = Phospholipase A2 (Homo sapiens, UniProt P04054); type: functional;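 further: confirmatory dose-response counterscreen on phospholipase A2, testing hits that came from an ultra-high-throughput screen for ATG4B inhibitors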
Phospholipase A2, sequence (P04054 whole entry): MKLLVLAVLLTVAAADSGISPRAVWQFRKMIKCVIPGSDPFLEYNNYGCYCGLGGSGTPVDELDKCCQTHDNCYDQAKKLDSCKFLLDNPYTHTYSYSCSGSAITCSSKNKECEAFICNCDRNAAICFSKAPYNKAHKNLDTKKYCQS

[3] = target: Transitional endoplasmic reticulum ATPase (Homo sapiens, UniProt P55072); assay: p97 ATPase inhibitors, dose response, biochemical (AID 1534)
[4] = target: Peroxisome proliferator-activated receptor gamma/Nuclear receptor corepressor 2 (Homo sapiens, UniProt P37231+Q9Y618); type: functional
Peroxisome proliferator-activated receptor gamma/Nuclear receptor corepressor 2, sequence (P37231 whole entry): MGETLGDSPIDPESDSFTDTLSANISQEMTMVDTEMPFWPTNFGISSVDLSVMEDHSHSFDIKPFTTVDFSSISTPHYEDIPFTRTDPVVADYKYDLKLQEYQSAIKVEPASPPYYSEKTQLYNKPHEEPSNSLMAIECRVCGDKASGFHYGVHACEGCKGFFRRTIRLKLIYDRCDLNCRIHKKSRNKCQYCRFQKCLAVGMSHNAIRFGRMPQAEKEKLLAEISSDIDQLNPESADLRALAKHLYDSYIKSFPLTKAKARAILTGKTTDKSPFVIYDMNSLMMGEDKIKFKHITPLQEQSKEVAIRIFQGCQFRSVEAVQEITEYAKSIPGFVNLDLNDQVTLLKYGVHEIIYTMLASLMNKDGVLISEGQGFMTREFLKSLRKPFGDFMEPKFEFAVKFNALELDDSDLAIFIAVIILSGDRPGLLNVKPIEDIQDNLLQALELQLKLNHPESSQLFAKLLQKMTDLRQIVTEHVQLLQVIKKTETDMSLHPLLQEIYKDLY
Peroxisome proliferator-activated receptor gamma/Nuclear receptor corepressor 2, sequence (Q9Y618 whole entry): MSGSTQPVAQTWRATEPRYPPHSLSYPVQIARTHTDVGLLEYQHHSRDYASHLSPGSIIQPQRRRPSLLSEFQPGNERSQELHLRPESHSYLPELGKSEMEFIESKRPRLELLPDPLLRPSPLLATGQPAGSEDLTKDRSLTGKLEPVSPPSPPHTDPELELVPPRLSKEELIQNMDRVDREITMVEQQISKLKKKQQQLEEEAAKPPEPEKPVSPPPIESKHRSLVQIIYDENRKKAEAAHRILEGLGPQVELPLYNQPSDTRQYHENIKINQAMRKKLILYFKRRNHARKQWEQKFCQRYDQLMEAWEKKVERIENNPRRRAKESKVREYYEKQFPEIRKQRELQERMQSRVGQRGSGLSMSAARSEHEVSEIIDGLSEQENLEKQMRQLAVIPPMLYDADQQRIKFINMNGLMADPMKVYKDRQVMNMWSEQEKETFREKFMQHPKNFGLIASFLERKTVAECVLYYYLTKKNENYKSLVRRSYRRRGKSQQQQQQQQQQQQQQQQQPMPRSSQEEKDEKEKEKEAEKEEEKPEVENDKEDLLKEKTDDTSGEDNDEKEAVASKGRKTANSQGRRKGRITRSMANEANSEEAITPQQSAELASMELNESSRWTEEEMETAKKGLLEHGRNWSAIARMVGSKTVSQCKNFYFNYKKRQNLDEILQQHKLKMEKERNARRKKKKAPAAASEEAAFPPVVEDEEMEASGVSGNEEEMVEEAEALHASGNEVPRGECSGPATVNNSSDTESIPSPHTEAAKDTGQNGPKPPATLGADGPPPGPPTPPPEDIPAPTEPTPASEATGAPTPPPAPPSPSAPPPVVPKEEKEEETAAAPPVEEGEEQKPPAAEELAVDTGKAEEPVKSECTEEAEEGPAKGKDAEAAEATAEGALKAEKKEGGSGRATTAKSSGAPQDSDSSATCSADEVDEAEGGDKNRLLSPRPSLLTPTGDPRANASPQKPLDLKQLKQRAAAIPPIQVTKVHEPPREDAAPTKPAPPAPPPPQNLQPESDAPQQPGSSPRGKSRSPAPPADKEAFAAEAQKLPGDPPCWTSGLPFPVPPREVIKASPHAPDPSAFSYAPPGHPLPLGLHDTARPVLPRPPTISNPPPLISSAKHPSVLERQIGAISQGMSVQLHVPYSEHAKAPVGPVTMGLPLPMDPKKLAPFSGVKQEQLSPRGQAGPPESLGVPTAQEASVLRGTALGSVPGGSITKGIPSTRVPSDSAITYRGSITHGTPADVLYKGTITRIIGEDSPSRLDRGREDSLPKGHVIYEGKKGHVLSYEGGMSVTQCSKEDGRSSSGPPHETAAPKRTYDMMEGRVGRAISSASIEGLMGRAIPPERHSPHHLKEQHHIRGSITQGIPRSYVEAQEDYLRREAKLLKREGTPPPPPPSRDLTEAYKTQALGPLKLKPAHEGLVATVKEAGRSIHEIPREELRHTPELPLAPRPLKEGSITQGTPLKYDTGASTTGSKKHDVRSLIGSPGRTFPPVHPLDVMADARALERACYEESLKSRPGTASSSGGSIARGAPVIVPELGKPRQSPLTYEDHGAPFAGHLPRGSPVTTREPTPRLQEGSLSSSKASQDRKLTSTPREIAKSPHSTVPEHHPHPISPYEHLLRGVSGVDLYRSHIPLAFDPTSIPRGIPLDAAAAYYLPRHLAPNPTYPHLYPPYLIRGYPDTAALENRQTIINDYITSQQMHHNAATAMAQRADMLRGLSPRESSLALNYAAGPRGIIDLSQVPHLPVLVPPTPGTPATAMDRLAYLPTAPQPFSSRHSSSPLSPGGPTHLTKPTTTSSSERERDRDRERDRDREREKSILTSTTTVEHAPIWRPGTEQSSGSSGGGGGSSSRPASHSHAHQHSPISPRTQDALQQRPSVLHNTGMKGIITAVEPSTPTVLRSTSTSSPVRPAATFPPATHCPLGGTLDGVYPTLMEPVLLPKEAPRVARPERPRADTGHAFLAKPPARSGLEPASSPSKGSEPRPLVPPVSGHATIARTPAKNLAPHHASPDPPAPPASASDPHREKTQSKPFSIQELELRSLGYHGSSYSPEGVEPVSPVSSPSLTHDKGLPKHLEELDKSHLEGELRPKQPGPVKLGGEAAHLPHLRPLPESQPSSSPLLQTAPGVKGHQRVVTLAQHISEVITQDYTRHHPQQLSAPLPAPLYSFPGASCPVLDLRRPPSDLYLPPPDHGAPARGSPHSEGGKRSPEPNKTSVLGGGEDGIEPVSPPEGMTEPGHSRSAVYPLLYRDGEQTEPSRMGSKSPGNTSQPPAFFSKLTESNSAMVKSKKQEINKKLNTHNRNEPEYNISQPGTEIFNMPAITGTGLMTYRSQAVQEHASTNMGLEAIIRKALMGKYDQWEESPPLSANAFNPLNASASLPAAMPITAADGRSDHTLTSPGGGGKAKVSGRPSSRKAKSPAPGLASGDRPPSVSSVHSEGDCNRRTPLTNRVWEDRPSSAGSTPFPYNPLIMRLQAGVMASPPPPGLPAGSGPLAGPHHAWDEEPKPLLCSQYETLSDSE

[5] = viability of HCT116 lacking mutant beta-catenin – cell-based, human colon tumor, dose response (AID 1045); type: functional;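 further: HCT116 colon tumor cells with beta catenin knocked out; cells exposed to compound for 60 hours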
[6] = target: Lysine-specific demethylase 4A (Homo sapiens, UniProt O75164); assay: inhibition of JMJD2A H3K9me3 demethylation – biochemical, DELFIA europium, cherry-picked samples, selectivity assay for GASC-1 inhibitor project, dose response (AID 488840)
Galanin receptor type 3 = target: T2, Galanin receptor type 3 (Homo sapiens, UniProt O60755); assay: Fluorescence-based cell-based primary high throughput dose response assay to identify antagonists of the Galanin Receptor 3 (GalR3).; type: functional
T2 sequence (O60755 whole entry): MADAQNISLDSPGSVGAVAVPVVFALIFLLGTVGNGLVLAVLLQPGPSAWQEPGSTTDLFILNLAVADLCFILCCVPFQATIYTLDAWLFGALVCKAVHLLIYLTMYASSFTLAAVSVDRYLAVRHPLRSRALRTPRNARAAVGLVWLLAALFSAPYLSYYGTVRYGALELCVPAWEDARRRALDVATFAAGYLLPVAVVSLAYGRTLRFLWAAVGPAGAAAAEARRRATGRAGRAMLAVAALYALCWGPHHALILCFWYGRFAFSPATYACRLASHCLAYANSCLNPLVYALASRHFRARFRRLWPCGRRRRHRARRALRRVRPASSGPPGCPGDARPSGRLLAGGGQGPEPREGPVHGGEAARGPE

[7] = target: T3, Endoribonuclease toxin MazF (Escherichia coli K-12, UniProt P0AE70); assay: MazEF toxin-antitoxin RNase activation – biochemical, fluorescence, single-stranded RNA substrate, SAR follow-up (AID 588603); type: functional
T3 sequence (P0AE70 whole entry): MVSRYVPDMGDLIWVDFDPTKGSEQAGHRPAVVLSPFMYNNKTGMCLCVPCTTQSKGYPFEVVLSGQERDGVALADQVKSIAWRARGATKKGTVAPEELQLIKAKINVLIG

Hexokinase HKDC1 = target: T4, Hexokinase HKDC1 (Homo sapiens, UniProt Q2TB90); assay: inhibition of HKDC1 glucose phosphorylation – biochemical, W721R variant, dose response (AID 504729); type: functional
T4 sequence (Q2TB90 whole entry): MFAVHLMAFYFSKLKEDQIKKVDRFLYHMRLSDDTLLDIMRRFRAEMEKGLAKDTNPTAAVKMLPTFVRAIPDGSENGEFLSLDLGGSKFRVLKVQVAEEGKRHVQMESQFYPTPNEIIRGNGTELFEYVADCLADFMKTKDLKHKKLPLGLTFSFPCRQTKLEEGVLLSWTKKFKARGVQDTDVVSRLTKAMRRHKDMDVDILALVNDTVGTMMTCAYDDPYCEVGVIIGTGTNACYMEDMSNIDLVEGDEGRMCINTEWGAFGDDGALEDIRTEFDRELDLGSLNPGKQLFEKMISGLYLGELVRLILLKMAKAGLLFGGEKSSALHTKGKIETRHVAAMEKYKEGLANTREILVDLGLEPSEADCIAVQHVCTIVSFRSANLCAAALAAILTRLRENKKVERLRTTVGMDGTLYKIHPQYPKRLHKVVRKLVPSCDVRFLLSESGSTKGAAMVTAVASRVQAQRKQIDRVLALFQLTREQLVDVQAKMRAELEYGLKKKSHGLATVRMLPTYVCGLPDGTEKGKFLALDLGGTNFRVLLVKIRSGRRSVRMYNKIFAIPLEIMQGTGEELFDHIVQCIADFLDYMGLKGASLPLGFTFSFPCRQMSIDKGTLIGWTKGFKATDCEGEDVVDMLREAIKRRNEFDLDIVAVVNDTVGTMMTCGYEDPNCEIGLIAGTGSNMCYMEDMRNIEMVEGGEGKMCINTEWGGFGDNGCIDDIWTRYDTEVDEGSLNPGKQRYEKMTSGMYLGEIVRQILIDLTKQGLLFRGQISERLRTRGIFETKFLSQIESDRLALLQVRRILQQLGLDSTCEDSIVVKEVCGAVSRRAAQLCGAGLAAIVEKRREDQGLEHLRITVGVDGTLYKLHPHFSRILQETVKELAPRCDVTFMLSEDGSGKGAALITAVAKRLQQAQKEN

[8] = target: T3, Endoribonuclease toxin MazF; assay: SAR analysis of small molecule activators of the MazEF TA System via a fluorescence-based single-stranded RNase assay counterscreen. [Related pubchem assays (depositor defined):AID504720, AID504743]; type: functional
[9] = target: T3, Endoribonuclease toxin MazF; assay: substrate-only fluorescence increase artefacts – biochemical, single-stranded RNase substrate, counter-screen for MazEF activator project, dose response (AID 588502); type: functional
[10] = target: Tyrosyl-DNA phosphodiesterase 2 (Homo sapiens, UniProt O95551); assay: potency against TDP2 phosphodiesterase activity – biochemical, epi absorbance, IC50, dose response (AID 743297)
Tyrosyl-DNA phosphodiesterase 2, sequence (O95551 whole entry): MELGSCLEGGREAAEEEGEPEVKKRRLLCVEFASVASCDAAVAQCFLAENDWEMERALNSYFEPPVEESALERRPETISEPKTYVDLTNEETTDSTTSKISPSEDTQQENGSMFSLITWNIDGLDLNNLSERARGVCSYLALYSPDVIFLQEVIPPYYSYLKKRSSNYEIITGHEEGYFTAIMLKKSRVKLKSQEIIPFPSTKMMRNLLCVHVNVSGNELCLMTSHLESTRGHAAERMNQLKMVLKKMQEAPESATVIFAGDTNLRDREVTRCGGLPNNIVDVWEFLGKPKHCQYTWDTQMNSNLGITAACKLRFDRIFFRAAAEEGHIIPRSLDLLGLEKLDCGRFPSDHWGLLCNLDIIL

Caspase-8 = Caspase-8 (Homo sapiens, UniProt Q14790); assay: inhibitors of purified CASP8 protease – biochemical, Z-IETD-R110 fluorescence, cherry-picked samples, selectivity assay for caspase-6 inhibitor project, dose response (AID 743294)
Caspase-8, sequence (Q14790 217-374 limits assumed): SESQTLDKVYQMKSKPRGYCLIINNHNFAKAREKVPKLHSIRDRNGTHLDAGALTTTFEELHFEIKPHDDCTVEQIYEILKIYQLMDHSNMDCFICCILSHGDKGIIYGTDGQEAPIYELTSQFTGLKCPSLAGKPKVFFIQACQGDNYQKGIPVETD
Caspase-8, sequence (Q14790 385-479 limits assumed): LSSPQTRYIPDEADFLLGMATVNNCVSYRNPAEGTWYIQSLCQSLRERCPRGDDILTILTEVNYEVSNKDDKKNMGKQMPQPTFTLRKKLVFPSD

Large T antigen = Large T antigen (Simian virus 40, UniProt P03070); type: functional, Betapolyomavirus macacae;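 further: Confirmatory-stage PubChem screen for compounds that inhibit SV40 T antigen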
ORF 73 = ORF 73 (Human herpesvirus 8, UniProt O40947); assay: KSHV LANA DNA-binding disruption – biochemical, fluorescence polarization, cherry-picked samples, dose response (AID 504725); design: species or system Human gammaherpesvirus 8;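 further: fluorescence polarization of a labeled DNA duplex reporting LANA DNA binding; potency is for inhibitors that block LANA binding to the DNA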
ORF 73, sequence (O40947 whole entry): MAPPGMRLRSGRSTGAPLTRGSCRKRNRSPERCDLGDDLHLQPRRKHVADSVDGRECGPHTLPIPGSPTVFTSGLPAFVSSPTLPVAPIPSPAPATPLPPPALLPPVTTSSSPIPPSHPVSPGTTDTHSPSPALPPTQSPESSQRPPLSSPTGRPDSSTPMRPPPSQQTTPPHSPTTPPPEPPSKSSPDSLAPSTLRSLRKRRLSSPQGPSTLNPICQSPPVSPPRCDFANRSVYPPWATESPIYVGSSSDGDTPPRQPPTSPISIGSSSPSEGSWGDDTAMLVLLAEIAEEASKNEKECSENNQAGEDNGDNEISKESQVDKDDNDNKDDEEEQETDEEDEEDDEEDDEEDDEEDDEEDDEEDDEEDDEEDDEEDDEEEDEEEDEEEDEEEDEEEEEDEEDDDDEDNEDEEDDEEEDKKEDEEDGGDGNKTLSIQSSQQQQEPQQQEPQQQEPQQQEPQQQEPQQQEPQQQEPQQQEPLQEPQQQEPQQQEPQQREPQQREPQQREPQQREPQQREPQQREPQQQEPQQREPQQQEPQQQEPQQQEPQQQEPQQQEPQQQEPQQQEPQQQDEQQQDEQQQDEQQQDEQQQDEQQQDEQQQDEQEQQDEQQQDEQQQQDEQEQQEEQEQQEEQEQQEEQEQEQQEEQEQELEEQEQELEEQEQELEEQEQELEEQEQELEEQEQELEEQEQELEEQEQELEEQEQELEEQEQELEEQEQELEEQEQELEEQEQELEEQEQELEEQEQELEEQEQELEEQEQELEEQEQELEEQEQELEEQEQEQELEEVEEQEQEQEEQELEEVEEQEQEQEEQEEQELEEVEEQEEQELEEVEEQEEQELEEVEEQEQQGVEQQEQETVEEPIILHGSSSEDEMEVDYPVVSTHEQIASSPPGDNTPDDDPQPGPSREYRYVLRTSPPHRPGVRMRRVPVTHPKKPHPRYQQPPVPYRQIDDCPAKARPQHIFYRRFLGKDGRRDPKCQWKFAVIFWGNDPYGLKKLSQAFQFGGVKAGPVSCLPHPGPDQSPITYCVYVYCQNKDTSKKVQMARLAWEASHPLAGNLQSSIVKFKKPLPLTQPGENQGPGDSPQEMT

Cc1nc2c(=O)n(C)c(=O)nc-2n(C)n1
IC50 [1]: < 1.24 µM (active) | IC50 [2]: 9.41 µM (active) | IC50 (Phospholipase A2): > 80 µM (inactive) | IC50 [3]: > 50 µM (not active) | IC50 [4]: > 39.8 µM (not active) | EC50 [5]: 0.781 µM (active) | AC50 [6]: 1.78 µM (active)

O=C1C=C(c2c(O)ccc3ccccc23)c2ccccc2C1=O
IC50 (Galanin receptor type 3): > 3.32 µM (active) | EC50 [7]: > 99 µM (inactive) | IC50 (Hexokinase HKDC1): 2.47 µM (active) | EC50 [8]: > 99 µM (inactive) | EC50 [9]: > 99 µM (inactive)

Oc1nc(Nc2ccccc2Cl)cc2ccccc12
IC50 [10]: 28.4 µM (inactive) | AC50 (Caspase-8): 13.4 µM (active)

O=C(CCN1C(=O)/C(=C\c2ccco2)SC1=S)Nc1ccc(C(=O)O)c(O)c1
IC50 (Large T antigen): > 100 µM (active) | AC50 (ORF 73): 94.6 µM (active)
